Source: US8097759B2, “Inflammatory cytokine release inhibitor” (Institute of Medicinal Molecular Design, Inc., priority 2000, dated 2012)

Test system: NF-κB activation
Test: NF-κB activation reporter assay (pNFκB-Luc luciferase) under TNF-α stimulation
Assay type: cell-based, human
Conditions: HepG2 or HeLa cells, TNF-α 40 ng/ml, 4 hours; for inhibition at 1 µg/mL / inhibition at 10 µg/mL: Homo sapiens, read-out: The rate of inhibitory activity against NF-κB activation (%)
Protocol: Using a transfection reagent (Effectene; QIAGEN), the human hepatoma cell strain HepG2 or the human hysterocarcinoma cell strain HeLa was transfected with the firefly luciferase gene (Luc) contained plasmid (pNF κB-Luc Reporter Plasmid; […]) which contained oligonucleotide having five tandem copies of NF-κB binding sequences ([…]) on a upstream region of Luc, according to the QUAGEN's protocol and it was incuvated for 6-24 hours. After addition of TNF-α (40 ng/ml) with or without the test compound, the cells were incuvated for 4 hours, and intracellular luciferase activity was measured with PicaGene LT (TOYO INK MFG Co., Ltd.) and chemical luminescence measurement device ([…]luor Plus; TECAN). The inhibition ratio was measured as a ratio to the value of the luciferase activity without the test compound.

[1] = Concentration of the agent: 1 μg/mL
[2] = Concentration of the agent: 10 μg/mL

Row | Compound | inhibition at 1 µg/mL [1] [%] | inhibition at 10 µg/mL [2] [%] | The rate of inhibitory activity against NF-κB activation (%) [1] [%] | The rate of inhibitory activity against NF-κB activation (%) [2] [%]
1 | Cc1ccc(O)c(C(=O)Nc2cc(C(F)(F)F)cc(C(F)(F)F)c2)c1 [Compound 55] | 95.8 | 99.4 | – | –
2 | CC(O)c1ccc(O)c(C(=O)Nc2cc(C(F)(F)F)cc(C(F)(F)F)c2)c1 (stereo not drawn) [Compound 57] | 76.8 | 96 | – | –
3 | O=C(Nc1cc(C(F)(F)F)cc(C(F)(F)F)c1)c1cc(C=Cc2ccccc2)ccc1O [Compound 63] | 95.5 | 96.9 | – | –
4 | C#Cc1ccc(O)c(C(=O)Nc2cc(C(F)(F)F)cc(C(F)(F)F)c2)c1 [Compound 64] | 53.3 | 90.1 | – | –
5 | C[Si](C)(C)C#Cc1ccc(O)c(C(=O)Nc2cc(C(F)(F)F)cc(C(F)(F)F)c2)c1 [Compound 66] | 91.1 | 94.9 | – | –
6 | O=C(Nc1cc(C(F)(F)F)cc(C(F)(F)F)c1)c1cc(-c2ccccc2)ccc1O [Compound 67] | 91.8 | 96.8 | – | –
7 | O=C(Nc1cc(C(F)(F)F)cc(C(F)(F)F)c1)c1cc(C(F)(F)F)ccc1O [Compound 69] | 96.4 | 99.6 | – | –
8 | O=C(Nc1cc(C(F)(F)F)cc(C(F)(F)F)c1)c1cc(C(F)(F)C(F)(F)F)ccc1O [Compound 70] | 93.3 | 95.4 | – | –
9 | O=C(Nc1cc(C(F)(F)F)cc(C(F)(F)F)c1)c1cc(-n2cccc2)ccc1O [Compound 71] | 93.8 | 97.9 | – | –
10 | O=C(Nc1cc(C(F)(F)F)cc(C(F)(F)F)c1)c1cc(-c2cccs2)ccc1O [Compound 72] | 79.5 | 97.8 | – | –
11 | O=C(Nc1cc(C(F)(F)F)cc(C(F)(F)F)c1)c1cc(-c2ccsc2)ccc1O [Compound 73] | 81.7 | 92.9 | – | –
12 | COc1ccc(O)c(C(=O)Nc2cc(C(F)(F)F)cc(C(F)(F)F)c2)c1 [Compound 77] | 30.7 | 97 | – | –
13 | O=C(Nc1cc(C(F)(F)F)cc(C(F)(F)F)c1)c1ccc(O)c(C(=O)Nc2cc(C(F)(F)F)cc(C(F)(F)F)c2)c1 [Compound 82] | -8.7 | 94.5 | – | –
14 | O=C(Nc1ccc(O)c(C(=O)Nc2cc(C(F)(F)F)cc(C(F)(F)F)c2)c1)c1ccccc1 [Compound 90] | 1 | 63.4 | – | –
15 | O=C(Nc1ccccc1)Nc1ccc(O)c(C(=O)Nc2cc(C(F)(F)F)cc(C(F)(F)F)c2)c1 [Compound 91] | 20.5 | 88.4 | – | –
16 | O=C(Nc1cc(C(F)(F)F)cc(C(F)(F)F)c1)c1cc(NC(=S)Nc2ccccc2)ccc1O [Compound 92] | 51.8 | 97.2 | – | –
17 | O=C(Nc1cc(C(F)(F)F)cc(C(F)(F)F)c1)c1cc(N=Nc2ccc([N+](=O)[O-])cc2)ccc1O [Compound 93] | 96.2 | 98.7 | – | –
18 | CC(=O)Oc1ccccc1C(=O)Nc1cc(C(F)(F)F)cc(C(F)(F)F)c1 [Compound 95, 2-Acetoxy-[3,5-bis(trifluoromethyl)phenyl]benzamide] | – | – | 90.9 | 97.1
19 | CC(=O)Oc1ccc(Cl)cc1C(=O)Nc1cc(C(F)(F)F)cc(C(F)(F)F)c1 [Compound 96] | 96.5 | 99.2 | – | –
20 | CC(=O)Nc1cc(O)c(C(=O)Nc2cc(C(F)(F)F)cc(C(F)(F)F)c2)cc1Cl [Compound 97] | 69.9 | 96 | – | –
21 | O=C(Nc1cc(C(F)(F)F)cc(C(F)(F)F)c1)c1ccc(Cl)cc1O [Compound 98] | 90.5 | 98.2 | – | –
22 | O=C(Nc1cc(C(F)(F)F)ccc1C(F)(F)F)c1cc(Br)ccc1O [Compound 101] | 95.7 | 98.3 | – | –
23 | O=C(Nc1ccccc1C(F)(F)F)c1cc(Cl)ccc1O [Compound 104] | 76.2 | 96.9 | – | –
24 | O=C(Nc1cccc(C(F)(F)F)c1)c1cc(Br)ccc1O [Compound 106] | 80.7 | 93.3 | – | –
